Measured values from US5596002A, “Method of treating chloroquine-resistant malaria with aminoquinoline derivatives” (Hoffmann-La Roche Inc., priority 1993, dated 1997).
Converted amounts (≈) assume the structure as drawn. Read-outs that look alike come from different tables or passages of the source.

Key:
[1] = tested on: Plasmodium falciparum, chloroquine-resistant strain RFCR3; test: activity against P. falciparum in vitro, strain RFCR3; assay type: cell-based; conditions: chloroquine-resistant strain RFCR3, 48 h-72 h, read-out: IC50 (50% growth inhibition)
Procedure: (§1) Test method for the determination of the activity against P. falciparum in vitro
(§2) The preparations of the present invention were tested on intraerythrocytary stages of P. falciparum from asynchronous cultures according to the method of Desjardin et al. (Desjardins, R. E. et al: Quantitative assessment of antimalarial activity in vitro by a semiautomated microdilution technique. Antimicrob. Agents Chemother. 16, 710-718, (1979)).
(§3) The culture medium consisted of RPMI 1640 with the addition of 25 mM HEPES, 25 mM NaHCO3, […] neomycin and 10% human serum (A^+). Human-A^+ erythrocytes were used as the P. falciparum host cells. The parasites were maintained at 37° C. in an atmosphere of 3% O2, 4% CO2, 93% N2 and at 95% relative humidity.
(§4) In order to determine the activity, the preparations were dissolved in DMSO, pre-diluted in the culture medium to a suitable starting concentration and subsequently titrated-out into microtitre plates in the 2nd stage over 6-7 steps. After the addition of the parasite culture (0.7% parasitemia in 2.5% erythrocyte suspension), the test plates were incubated under the conditions given above for 48 h-72 h. The parasite growth in the different preparation concentrations was determined using [G-^3 H]-hypoxanthin incorporation compared to untreated control cultures on the same test plates. The 50% growth inhibition (IC50) was calculated according to logit regression analysis from the resulting dosage-activity curve.
(§5) The preparations were tested on at least one chloroquine-resistant and one chloroquine-sensitive P. falciparum strain. Additional sensitive and resistant strains were also included for further characterization.
(§6) Table 1 below contains the IC50 values measured in vitro for the growth inhibition of chloroquine-sensitive and chloroquine-resistant strains of the human pathogenic Plasmodium falciparum.

[2] = tested on: Plasmodium falciparum, chloroquine-resistant strain ItG2 F6; test: activity against P. falciparum in vitro, strain ItG2 F6; assay type: cell-based; conditions: chloroquine-resistant strain ItG2 F6, 48 h-72 h, read-out: IC50 (50% growth inhibition)
Procedure: as §1, §2, §3, §4, §5, §6

[3] = tested on: Plasmodium falciparum, chloroquine-sensitive strain FCH5C2; test: activity against P. falciparum in vitro, strain FCH5C2; assay type: cell-based; conditions: chloroquine-sensitive strain FCH5C2, 48 h-72 h, read-out: IC50 (50% growth inhibition)
Procedure: as §1, §2, §3, §4, §5, §6

[4] = tested on: Plasmodium falciparum, chloroquine-sensitive strain NF54; test: activity against P. falciparum in vitro, strain NF54; assay type: cell-based; conditions: Plasmodium falciparum; chloroquine-sensitive strain NF54; 48 h-72 h; read-out: IC50 (50% growth inhibition)
Procedure: as §1, §2, §3, §4, §5, §6

[5] = tested on: Plasmodium falciparum, chloroquine-resistant strain Indo; test: activity against P. falciparum in vitro, strain Indo; assay type: cell-based; conditions: chloroquine-resistant strain Indo, 48 h-72 h, read-out: IC50 (50% growth inhibition)
Procedure: as §1, §2, §3, §4, §5, §6

[6] = tested on: Plasmodium falciparum, chloroquine-resistant strain 7G8; test: activity against P. falciparum in vitro, strain 7G8; assay type: cell-based; conditions: chloroquine-resistant strain 7G8, 48 h-72 h, read-out: IC50 (50% growth inhibition)
Procedure: as §1, §2, §3, §4, §5, §6

[7] = tested on: Plasmodium falciparum, chloroquine-sensitive strain HB3; test: activity against P. falciparum in vitro, strain HB3; assay type: cell-based; conditions: chloroquine-sensitive strain HB3, 48 h-72 h, read-out: IC50 (50% growth inhibition)
Procedure: as §1, §2, §3, §4, §5, §6

[8] = tested on: Plasmodium falciparum, chloroquine-sensitive strain Ro7 3; test: activity against P. falciparum in vitro, strain Ro7 3; assay type: cell-based; conditions: chloroquine-sensitive strain Ro7 3, 48 h-72 h, read-out: IC50 (50% growth inhibition)
Procedure: as §1, §2, §3, §4, §5, §6

[9] = tested on: Plasmodium berghei (strain ANKA); test: activity against Plasmodium berghei in vivo (infected mice); conditions: mice; for ED50: single administration po, dose reducing average erythrocyte infection rate by 50%, read-out: ED50 (po); for inhibition in vivo at 10 mg/kg: 48 hours after treatment (D+3)
Procedure: Test method for the determination of the activity against Plasmodium berghei in vivo
The preparations according to the present invention were tested on mice infected with malaria pathogens (Plasmodium berghei). Male albino mice (IBM:MORO(SPF), FUELLINSDORF) weighing about 25 g were used as the test animals. They were kept in climatized rooms at 21°-22° C. in groups of 5 animals per cage. They received ad libitum a diet feed with a low PABA content ("NAFAG FUTTER" No. 9009 PAB-45, PABA content 45 mg/kg) and drinking water. On the first day of the test (D0) the test animals were infected with Plasmodium berghei (strain ANKA). For this there was used heparinized blood of a donor mouse with about 30% parasitemia, which was diluted with physiological saline such that it contains 10^8 parasitized erythrocytes per ml. 0.2 ml of this suspension was injected intravenously (i.v.) into the mice to be treated and into the control mice. In untreated control animals the parasitemia normally reaches 30-40% on the third day after the infection (D+3) and the test animals die between days +5 and +7.
The substances to be tested were dissolved or suspended in distilled water or in a mixture of 7% Tween 80, 3% alcohol (96%) and water. Usually, 0.25 ml of this solution or suspension was administered once subcutaneously and perorally to groups of 5 test animals. Treatment was effected 24 hours after the infection. 10 control animals were treated in the same manner with solvent or suspension medium per test.
All substances were tested in a first test in a single dosage of 10 mg/kg. Only those substances which in this test (10 mg/kg) had shown a parasitaemia reduction of 90% were used for the titration.
48 hours after the treatment (D+3), blood smears were prepared from all animals using blood from tail veins and were stained with Giemsa. The average erythrocyte infection rate (parasitemia in %) in the control groups as well as in the groups which had been treated with the test compounds was determined by counting under a microscope. The difference in the average values of the infection rates of control group (100%) and treated groups was calculated and expressed as a percentage reduction (GI %). The ED50 or ED90 was determined mathematically by means of the JMP programme (nonlinear fit). The ED50 (ED90) in mg/kg is that dose which after single administration reduces the average erythrocyte infection rate by 50% (90%) in comparison to the control group.
Table 2 below contains data with respect to the activity measured against Plasmodium berghei in mice: GI % is the percentage reduction in the parasitemia after a single dose of 10 mg/kg of the test substance administered perorally (po) or subcutaneously (sc); ED50 and ED90 are the effective doses of the test substance administered perorally or subcutaneously.

[10] = tested on: Plasmodium falciparum, chloroquine-sensitive strain RFMEF3; test: activity against P. falciparum in vitro, strain RFMEF3; assay type: cell-based; conditions: chloroquine-sensitive strain RFMEF3, 48 h-72 h, read-out: IC50 (50% growth inhibition)
Procedure: as §1, §2, §3, §4, §5, §6

[11] = tested on: Plasmodium falciparum, chloroquine-resistant strain W2 Mef; test: activity against P. falciparum in vitro, strain W2 Mef; assay type: cell-based; conditions: 48 h-72 h, read-out: IC50 (50% growth inhibition)
Procedure: as §1, §2, §3, §4, §5, §6

[12] = tested on: Plasmodium falciparum, chloroquine-resistant strain K1; test: activity against P. falciparum in vitro, strain K1; assay type: cell-based; conditions: Plasmodium falciparum; chloroquine-resistant strain K1; 48 h-72 h; read-out: IC50 (50% growth inhibition)
Procedure: as §1, §2, §3, §4, §5, §6

[13] = tested on: Plasmodium falciparum, chloroquine-resistant strain W2; test: activity against P. falciparum in vitro, strain W2; assay type: cell-based; conditions: chloroquine-resistant strain W2, 48 h-72 h, read-out: IC50 (50% growth inhibition)
Procedure: as §1, §2, §3, §4, §5, §6

[14] = single dose 10 mg/kg po, read-out: GI % at 10 mg/kg (po): percentage reduction in the parasitemia
[15] = single dose 10 mg/kg sc, read-out: GI % at 10 mg/kg (sc): percentage reduction in the parasitemia

Row | Compound | IC50 [1] | IC50 [2] | IC50 [3] | IC50 [4] | IC50 [5] | IC50 [6] | IC50 [7] | IC50 [8] | ED50 [9] | inhibition in vivo at 10 mg/kg [9, 14] | inhibition in vivo at 10 mg/kg [9, 15] | IC50 [10] | IC50 [11] | IC50 [12] | IC50 [13]
1 | CC(CN(C)C)Nc1ccnc2cc(Cl)ccc12 (racemic) [Example 1, (RS)-N2-(7-Chloro-quinolin-4-yl)-N1,N1-dimethyl-propane-1,2-diamine] | 15 ng/mL (≈ 0.0569 µM) | 4 ng/mL (≈ 0.0152 µM) | 8 ng/mL (≈ 0.0303 µM) | 4 ng/mL (≈ 0.0152 µM) | 8 ng/mL (≈ 0.0303 µM) | 9 ng/mL (≈ 0.0341 µM) | 7 ng/mL (≈ 0.0265 µM) | 5 ng/mL (≈ 0.019 µM) | 2.3 mg/kg | 99.9% | 99.9% | 7 ng/mL (≈ 0.0265 µM) | 7 ng/mL (≈ 0.0265 µM) | 9 ng/mL (≈ 0.0341 µM) | 9 ng/mL (≈ 0.0341 µM)
2 | CCN(CC)CC(C)Nc1ccnc2cc(Cl)ccc12 (racemic) [Example 2, (RS)-N2-(7-Chloro-quinolin-4-yl)-N1,N1-diethyl-propane-1,2-diamine] | 8 ng/mL (≈ 0.0274 µM) | 5 ng/mL (≈ 0.0171 µM) | 7 ng/mL (≈ 0.024 µM) | 7 ng/mL (≈ 0.024 µM) | 6 ng/mL (≈ 0.0206 µM) | 8 ng/mL (≈ 0.0274 µM) | 7 ng/mL (≈ 0.024 µM) | 6 ng/mL (≈ 0.0206 µM) | 3.2 mg/kg | 99.8% | 99.9% | 7 ng/mL (≈ 0.024 µM) | 9 ng/mL (≈ 0.0308 µM) | 14 ng/mL (≈ 0.048 µM) | 8 ng/mL (≈ 0.0274 µM)
3 | CCN(CC)[C@@H]1CCCC[C@H]1Nc1ccnc2cc(Cl)ccc12 (racemic) [Example 9, (1RS,2RS)-N1-(7-Chloro-quinolin-4-yl)-N2,N2-diethyl-cyclohexane-1,2-diamine] | 17 ng/mL (≈ 0.0512 µM) | 17 ng/mL (≈ 0.0512 µM) | 15 ng/mL (≈ 0.0452 µM) | 11 ng/mL (≈ 0.0331 µM) | 18 ng/mL (≈ 0.0542 µM) | 30 ng/mL (≈ 0.0904 µM) | 14 ng/mL (≈ 0.0422 µM) | 11 ng/mL (≈ 0.0331 µM) | 4.4 mg/kg | 99% | 99.6% | 12 ng/mL (≈ 0.0362 µM) | 25 ng/mL (≈ 0.0753 µM) | 32 ng/mL (≈ 0.0964 µM) | 31 ng/mL (≈ 0.0934 µM)
4 | Clc1ccc2c(N[C@@H]3CCCC[C@H]3N3CCCC3)ccnc2c1 (racemic) [Example 10, (1RS,2RS)-(7-Chloro-quinolin-4-yl)-(2pyrrolidin-1-yl-cyclohexyl)-amine] | 18 ng/mL (≈ 0.0546 µM) | 7 ng/mL (≈ 0.0212 µM) | 5 ng/mL (≈ 0.0152 µM) | 7 ng/mL (≈ 0.0212 µM) | 16 ng/mL (≈ 0.0485 µM) | 15 ng/mL (≈ 0.0455 µM) | 8 ng/mL (≈ 0.0243 µM) | 7 ng/mL (≈ 0.0212 µM) | 6.4 mg/kg | 99% | 99% | 6 ng/mL (≈ 0.0182 µM) | 15 ng/mL (≈ 0.0455 µM) | 17 ng/mL (≈ 0.0515 µM) | 13 ng/mL (≈ 0.0394 µM)
